Assays:
large crabgrass = assay: Test D large crabgrass; format: in vivo, Digitaria sanguinalis; conditions: Preemergence, 0 to 100 scale
Text: Seeds, tubers, or plant parts of Alexandergrass (Brachiaria plantaginea), bermuda-grass (Cynodon dactylon), common pursiane (Portulaca oleracea), common ragweed (Ambrosia elatior), common groundsel (Senecio vulgaris), dallisgrass (Paspalum dilatatum), goosegrass (Eleusine indica), guineagrass (Panicum maximum), itchgrass (Rottboellia exaltata), Johnson grass (Sorghum halepense), large crabgrass (Digitaria sanguinalis), pitted morningglory (Ipomoea lacunosa), purple nutsedge (Cyperus rotundus), sandbur (Cenchrus echinatus), sourgrass (Trichachne insularis), Spanishneedles (Bidens bipinnata), surinam grass (Brachiaria decumbens) and tall mallow (Malva sylvestris) were planted into greenhouse pots of flats containing greenhouse planting medium. Plant species were grown in separate pots or individual compartments. Preemergence applications were made within one day of planting the seed or plant part.
Test chemicals were formulated in a non-phytotoxic solvent mixture which included a surfactant and applied preemergence to the surface of the pot containing seeds in a sandy loam soil. Untreated control pots and treated pots were placed in the greenhouse for growth and visually evaluated for injury 14 to 21 days after herbicide application. Plant response ratings, summarized in Table C, are based on a 0 to 100 scale where 0 is no injury and 100 is complete control. A dash (−) response means no test result.

purple nutsedge = assay: Test D purple nutsedge; format: in vivo, Cyperus rotundus; conditions: Preemergence, 0 to 100 scale
Outline: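 Each weed species is planted in its own pot or compartment; preemergence doses go on the sandy loam surface within a day. The formulation is a surfactant-containing, non-phytotoxic solvent blend. Ratings come from visual comparison with untreated controls 14 to 21 days later, where 100 means complete control.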

soybean = assay: Test B pre/postemergence soybean; format: in vivo, Glycine max
Outline: (§1)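 Test chemicals in a non-phytotoxic solvent mixture with surfactant were sprayed preemergence onto planted seeds and postemergence onto plants 2 to 18 cm tall (1- to 4-leaf stage). After twelve to sixteen days in a greenhouse, injury was visually rated against untreated controls from 0 (no effect) to 10 (complete control).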

rice = assay: Test B flood test rice; format: in vivo, Oryza sativa
Outline: (§2)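 Read-out is a visual response score from 0 (no effect) to 10 (complete control), assigned by comparison with untreated controls. Treatment was applied at the 2-leaf stage, and plants stayed in the greenhouse for twelve to sixteen days before scoring.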

giant foxtail = assay: Test B pre/postemergence giant foxtail; format: in vivo, Setaria faberii
Outline: as §1

bamyardgrass = assay: Test B flood test barnyardgrass; format: in vivo, Echinochloa crus-galli
Outline: as §2

blackgrass = assay: Test E blackgrass; format: in vivo, Alopecurus myosuroides; conditions: Preemergence
green foxtail = assay: Test E green foxtail; format: in vivo, Setaria viridis; conditions: Preemergence
winter barley = assay: Test E winter barley; format: in vivo, Hordeum vulgare; conditions: Preemergence
winter wheat [1] = assay: Test E winter wheat; format: in vivo, Triticum aestivum; conditions: Postemergence
Outline: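 Compound formulated with surfactant in a non-phytotoxic solvent (postemergence: young 1- to 4-leaf plants); held in greenhouse approx. 21–28 days; visual assessment against untreated plants.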

Italian ryegrass = assay: Test E Italian ryegrass; format: in vivo, Lolium multiflorum; conditions: Preemergence
winter wheat [2] = assay: Test E winter wheat; format: in vivo, Triticum aestivum; conditions: Preemergence
wild oat = assay: Test E wild oat; format: in vivo, Avena fatua; conditions: Preemergence
[3] = Rate 32 g/ha, 0 no injury, 100 complete control
[4] = Rate 64 g/ha, 0 no injury, 100 complete control
[5] = Rate 125 g/ha, 0 no injury, 100 complete control
[6] = Postemergence, Rate 62 g/ha, scale 0 to 10, 0 is no effect, 10 is complete control
[7] = Postemergence, Rate 250 g/ha, scale 0 to 10, 0 no effect, 10 complete control
[8] = Preemergence, Rate 62 g/ha, scale 0 to 10, 0 is no effect, 10 is complete control
[9] = Preemergence, Rate 125 g/ha, scale 0 to 10 (0 no effect, 10 complete control)
[10] = Preemergence, Rate 250 g/ha, scale of 0 to 10 where 0 is no effect and 10 is complete control
[11] = Preemergence, Rate 500 g/ha, scale 0 (no effect) to 10 (complete control)
[12] = Rate 125 g/ha, Postemergence, scale 0 to 10, 0 no effect, 10 complete control
[13] = Rate 125 g/ha, Postemergence section (flood test species), scale 0 to 10, 0 no effect, 10 complete control
[14] = Rate 500 g/ha, Postemergence section of Table B, 0 to 10 scale (0 no effect, 10 complete control)
[15] = flood test, listed under Postemergence, Rate 250 g/ha, scale 0 to 10, 0 no effect, 10 complete control
[16] = Rate 500 g/ha, Postemergence, 0 to 10 scale (0 no effect, 10 complete control)
[17] = Rate 250 g/ha, headed Pre-emergence (flood test species), scale 0 to 10 (0 no effect, 10 complete control)
[18] = Rate 500 g/ha, headed Pre-emergence (flood test species), scale 0 to 10 (0 no effect, 10 complete control)
[19] = Rate 1000 g/ha, Pre-emergence (as headed), scale 0 to 10
[20] = Postemergence, Rate 125 g/ha, scale 0 to 10, 0 is no effect, 10 is complete control
[21] = Preemergence, Rate 62 g/ha, scale of 0 to 10 where 0 is no effect and 10 is complete control
[22] = Preemergence, Rate 500 g/ha, scale of 0 to 10 where 0 is no effect and 10 is complete control
[23] = Rate 62 g/ha, Postemergence, scale of 0 to 10 where 0 is no effect and 10 is complete control
[24] = Rate 500 g/ha, Postemergence, scale 0 to 10, 0 no effect, 10 complete control
[25] = Rate 62 g/ha, headed Pre-emergence (flood test species), scale 0 to 10 (0 no effect, 10 complete control)
[26] = Rate 125 g/ha, Pre-emergence, flood test species, scale 0 to 10 where 0 is no effect and 10 is complete control
[27] = Rate 250 g/ha, Pre-emergence, flood-test species, scale 0 to 10, 0 is no effect, 10 is complete control
[28] = Rate 500 g/ha, Pre-emergence, flood test species, scale 0 to 10 (0 no effect, 10 complete control)
[29] = Rate 500 g/ha, 0 to 100 scale (0 no effect, 100 complete control)
[30] = Rate 1000 g/ha, 0 to 100 scale, 0 no effect, 100 complete control

CCc1ccccc1-n1c(=O)on(C(=O)N(c2ccc(F)cc2)C(C)C)c1=O [Compound 34]
85: Plant response rating Large crabgrass (large crabgrass; [3])
0: Plant response rating, Purple nutsedge (purple nutsedge; [3]) | Purple nutsedge plant response rating (purple nutsedge; [4]) | Purple nutsedge plant response rating (purple nutsedge; [5]) | Plant response rating, Purple nutsedge (purple nutsedge; Rate 250 g/ha) | Soybean plant response rating (soybean; [6]) | Soybean plant response rating (soybean; [7]) | Plant response rating, Soybean (soybean; [8]) | Plant response rating, Soybean (soybean; [9]) | Plant response rating, Soybean (soybean; [10]) | Soybean plant response rating (soybean; [11]) | Soybean plant response rating (soybean; [12]) | Rice plant response rating (rice; [6]) | Rice plant response rating (rice; [13]) | Rice plant response rating (rice; [14]) | Rice plant response rating (rice; [15]) | Giant foxtail plant response rating (giant foxtail; [6]) | Giant foxtail plant response rating (giant foxtail; [12]) | Barnyardgrass plant response rating (bamyardgrass; [6]) | Barnyardgrass plant response rating (bamyardgrass; [13]) | Barnyardgrass plant response rating (bamyardgrass; [14]) | Barnyardgrass plant response rating (bamyardgrass; [15])
10: Plant response rating, Giant foxtail (giant foxtail; [10]) | Giant foxtail plant response rating (giant foxtail; [11])
98: Plant response rating Large crabgrass (large crabgrass; [4])
6: Plant response rating, Giant foxtail (giant foxtail; [9])
2: Giant foxtail plant response rating (giant foxtail; [7]) | Plant response rating, Giant foxtail (giant foxtail; [8])
100: Plant response rating Large crabgrass (large crabgrass; [5]) | Plant response rating Large crabgrass (large crabgrass; Rate 250 g/ha)
8: Giant foxtail plant response rating (giant foxtail; [16])

Cc1ccccc1-n1c(=O)on(C(=O)N(c2ccccc2)C(C)C)c1=O [Compound 36]
2: Rice plant response rating (rice; [14]) | Barnyardgrass plant response rating (bamyardgrass; [15])
100: Plant response rating Large crabgrass (large crabgrass; Rate 500 g/ha)
0: Plant response rating, Purple nutsedge (purple nutsedge; Rate 500 g/ha) | Plant response rating, Soybean (soybean; [8]) | Plant response rating, Soybean (soybean; [9]) | Plant response rating, Soybean (soybean; [10]) | Soybean plant response rating (soybean; [11]) | Rice plant response rating (rice; [6]) | Rice plant response rating (rice; [13]) | Rice plant response rating (rice; [17]) | Plant response rating, Rice (rice; [18]) | Rice plant response rating (rice; [19]) | Rice plant response rating (rice; Rate 2000 g/ha, Pre-emergence (as headed), scale 0 to 10) | Rice plant response rating (rice; [15]) | Giant foxtail plant response rating (giant foxtail; [6]) | Barnyardgrass plant response rating (bamyardgrass; [6]) | Barnyardgrass plant response rating (bamyardgrass; [13]) | Barnyardgrass plant response rating (bamyardgrass; [17]) | Plant response rating, Barnyardgrass (bamyardgrass; [18]) | Barnyardgrass plant response rating (bamyardgrass; [19]) | Barnyardgrass plant response rating (bamyardgrass; Rate 2000 g/ha, Pre-emergence (as headed), scale 0 to 10, 0 no effect, 10 complete control)
5: Soybean plant response rating (soybean; [6]) | Soybean plant response rating (soybean; [7]) | Soybean plant response rating (soybean; [12]) | Barnyardgrass plant response rating (bamyardgrass; [14])
10: Plant response rating, Giant foxtail (giant foxtail; [8]) | Plant response rating, Giant foxtail (giant foxtail; [9]) | Plant response rating, Giant foxtail (giant foxtail; [10]) | Giant foxtail plant response rating (giant foxtail; [11])
3: Giant foxtail plant response rating (giant foxtail; [7]) | Giant foxtail plant response rating (giant foxtail; [12]) | Giant foxtail plant response rating (giant foxtail; [16])

CC(C)N(C(=O)n1oc(=O)n(C2CCCCCC2)c1=O)c1ccc(F)cc1 [Compound 340]
8: Giant foxtail plant response rating (giant foxtail; [21])
6: Plant response rating, Giant foxtail (giant foxtail; [24]) | Barnyardgrass plant response rating (bamyardgrass; [26])
40: Plant response rating, Barley (winter) (winter barley; [29]) | Plant response rating, Wheat (winter) (winter wheat [2]; Rate 250 g/ha, 0 to 100 scale)
2: Plant response rating, Soybean (soybean; [20])
3: Plant response rating, Soybean (soybean; [24])
1: Soybean plant response rating (soybean; [23])
0: Soybean plant response rating (soybean; [21]) | Soybean plant response rating (0 to 10 scale) (soybean; Preemergence, Rate 125 g/ha) | Soybean plant response rating (soybean; [10]) | Soybean plant response rating (soybean; [22]) | Rice plant response rating (rice; [25]) | Rice plant response rating (rice; [26]) | Rice plant response rating (rice; [27]) | Rice plant response rating (rice; [28]) | Plant response rating, Giant foxtail (giant foxtail; [20]) | Giant foxtail plant response rating (giant foxtail; [23])
85: Plant response rating, Blackgrass (blackgrass; [30])
65: Plant response rating, I. Ryegrass (Italian ryegrass; [30])
60: Plant response rating, Blackgrass (blackgrass; [29]) | Plant response rating, Green foxtail (green foxtail; [29]) | Plant response rating, Wheat (winter) (winter wheat [1]; Rate 1000 g/ha, 0 to 100 scale where 0 is no effect and 100 is complete control) | Plant response rating, I. Ryegrass (Italian ryegrass; [29]) | Plant response rating, Wheat (winter) (winter wheat [2]; [30]) | Plant response rating, Wild oat (wild oat; [30])
100: Plant response rating, Green foxtail (green foxtail; [30])
7: Barnyardgrass plant response rating (bamyardgrass; [25])
55: Plant response rating, Wheat (winter) (winter wheat [1]; Rate 500 g/ha, 0 to 100 scale, 0 is no effect, 100 is complete control) | Plant response rating, I. Ryegrass (Italian ryegrass; Rate 250 g/ha, 0 to 100 scale)
30: Plant response rating, Green foxtail (green foxtail; Rate 250 g/ha, 0 to 100 scale) | Plant response rating, Wheat (winter) (winter wheat [1]; Rate 250 g/ha, 0 to 100 scale, 0 is no effect, 100 is complete control)
10: Giant foxtail plant response rating (0 to 10 scale) (giant foxtail; Preemergence, Rate 125 g/ha) | Giant foxtail plant response rating (giant foxtail; [10]) | Giant foxtail plant response rating (giant foxtail; [22]) | Barnyardgrass plant response rating (bamyardgrass; [27])
50: Plant response rating, Blackgrass (blackgrass; Rate 250 g/ha, 0 to 100 scale) | Plant response rating, Barley (winter) (winter barley; Rate 250 g/ha, 0 to 100 scale, 0 no effect, 100 complete control) | Plant response rating, Barley (winter) (winter barley; [30]) | Plant response rating, Wheat (winter) (winter wheat [2]; [29]) | Plant response rating, Wild oat (wild oat; Rate 250 g/ha, 0 to 100 scale) | Plant response rating, Wild oat (wild oat; [29])
9: Barnyardgrass plant response rating (bamyardgrass; [28])
